The values below are quoted from earlier work in US20090012101A1, “Mucarinic Agonists and Methods of Use Thereof” (UNIVERSITY OF TOLEDO, priority 2005, published 2009).

The structures appear in SMILES notation.

One data set has as its target T1, M2 receptors (Homo sapiens, UniProt P08172).
T1 sequence (P08172 1-466): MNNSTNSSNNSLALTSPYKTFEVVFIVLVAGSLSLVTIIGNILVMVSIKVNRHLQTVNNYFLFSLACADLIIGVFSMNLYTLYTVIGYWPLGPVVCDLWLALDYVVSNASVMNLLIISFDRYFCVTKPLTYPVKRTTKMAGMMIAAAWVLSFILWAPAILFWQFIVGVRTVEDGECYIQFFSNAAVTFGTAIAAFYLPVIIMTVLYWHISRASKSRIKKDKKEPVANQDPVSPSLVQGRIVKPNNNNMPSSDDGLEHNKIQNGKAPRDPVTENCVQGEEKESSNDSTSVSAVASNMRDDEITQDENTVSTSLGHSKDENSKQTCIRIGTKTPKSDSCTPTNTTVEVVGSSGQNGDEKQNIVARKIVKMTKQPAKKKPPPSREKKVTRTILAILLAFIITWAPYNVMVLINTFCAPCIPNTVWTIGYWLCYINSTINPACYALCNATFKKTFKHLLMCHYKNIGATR

For data set [1] the following is noted: preclinical studies.
The target of a further data set is T2, M4 receptors (Homo sapiens, UniProt P08173).
T2 sequence (P08173 1-479): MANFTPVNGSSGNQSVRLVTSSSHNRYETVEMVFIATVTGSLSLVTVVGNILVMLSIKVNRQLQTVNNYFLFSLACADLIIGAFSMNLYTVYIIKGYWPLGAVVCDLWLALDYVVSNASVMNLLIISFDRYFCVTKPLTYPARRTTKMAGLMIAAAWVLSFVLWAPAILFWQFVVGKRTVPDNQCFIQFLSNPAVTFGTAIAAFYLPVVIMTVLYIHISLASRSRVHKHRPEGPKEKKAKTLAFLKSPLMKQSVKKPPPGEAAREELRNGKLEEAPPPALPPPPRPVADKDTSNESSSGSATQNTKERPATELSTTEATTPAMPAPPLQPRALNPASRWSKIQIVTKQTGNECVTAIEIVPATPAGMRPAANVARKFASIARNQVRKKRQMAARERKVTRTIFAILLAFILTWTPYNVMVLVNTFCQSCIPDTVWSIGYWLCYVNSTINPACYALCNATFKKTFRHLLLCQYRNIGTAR

Regarding `CCCCSc1nsnc1[C@H]1CN2CCC[C@H]1C2` [BuTAC, (5R,6R)-6-(3-butylthio-1,2,5-thiadiazol-4-yl)-1-azabicyclo[3.2.1]octane], on M2 receptors, the “agonist activity at M2 receptors” value is on record as “partial agonist activity”. The antipsychotic activity entry in data set [1] is “strong antipsychotic activity”. The “agonist activity at M4 receptors” value at M4 receptors is reported as “partial agonist activity”.
On to `CCCCCCOc1nsnc1C1=CCCN(C)C1` [xanomeline], for which the “unwanted side effects associated with activation of M3 receptors” value was “salivation, diarrhea and profuse sweating”. The “effect on psychiatric symptoms such as hallucinations” value (phase II clinical trials, Alzheimer's patients) is reported as “significantly improved psychiatric symptoms”.
